From patent publication US20230087118A1, “IMIDAZO[1,2-a][sequence] DERIVATIVES AND THEIR USE IN THE TREATMENT OF DISEASE” (priority 2019, published 2023) come the findings set out here.

The target in test [1] is T1, IRAK4 (Homo sapiens, UniProt Q9NWZ3).
T1 sequence (Q9NWZ3 1-460): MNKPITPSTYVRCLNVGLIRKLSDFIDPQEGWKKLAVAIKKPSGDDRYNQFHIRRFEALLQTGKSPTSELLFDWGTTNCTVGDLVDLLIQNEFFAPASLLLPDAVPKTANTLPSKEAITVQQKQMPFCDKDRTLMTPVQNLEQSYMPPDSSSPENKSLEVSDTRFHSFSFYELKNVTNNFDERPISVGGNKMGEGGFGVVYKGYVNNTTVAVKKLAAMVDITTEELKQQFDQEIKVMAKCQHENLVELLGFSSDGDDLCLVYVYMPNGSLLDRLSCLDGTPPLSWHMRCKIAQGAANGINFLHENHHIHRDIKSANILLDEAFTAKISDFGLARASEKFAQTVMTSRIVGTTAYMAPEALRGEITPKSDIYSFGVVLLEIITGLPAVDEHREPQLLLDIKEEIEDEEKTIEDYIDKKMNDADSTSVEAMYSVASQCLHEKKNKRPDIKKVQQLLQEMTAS
Nature of the test: 2-hour 10 μM ATP Biochemical Assay (MesoScale Detection format; IRAK4 phosphorylation of biotin labeled IRAK1 activation loop peptide). The conditions noted are these: 0.1 nM IRAK4. On the procedure:
Compounds of the invention were assessed for their ability to inhibit IRAK4 activity. The inhibitory properties of the compounds of the invention described herein can be evidenced by testing in any one of the following assays.
The 2-hour 10 μM ATP Biochemical Assay employs a MesoScale Detection (MSD) format. The kinase reaction is based on the IRAK4 phosphorylation of a biotin labeled peptide (IRAK1 activation loop sequence 360-389).
The kinase reaction in 30 μl is carried out in wells of a 384 well polypropylene assay plate, with 0.1 nM IRAK4, 1.6 μM of biotinylated peptide substrate and 10 μM ATP in 50 mM Hepes, pH 7.5, 60 mM NaCl, 5 mM MgCl2, 0.25 mM MnCl2, 2 mM DTT, 0.01% BSA, and 1% DMSO (from compound DMSO stocks), for 2 hour at room temperature. The activity is quenched with 11 μl of 70 mM EDTA, pH 8.
To detect the phosphorylated biotinylated peptide substrate, 30 μl of the quenched reaction mixture is added to equivalent wells of a 384 well streptavidin coated MesoScale plate (Meso Scale Discovery #L21SA-1). After a 1 hour incubation of the plate for 1 hour at room temperature with gentle mixing, the plate wells are washed 3 times with 50 mM Tris, pH 7.5, 150 mM NaCl, 0.02% Tween-20.
A 25 μl volume of 1:500 anti-P-Threonine Rabbit polyclonal Antibody plus 1:500 Goat-anti-Rabbit Sulfo Tag Antibody (Meso Scale Discovery R32AB-1) in 50 mM Tris, pH 7.5, 150 mM NaCl, 0.02% Tween-20 plus 2% BSA is then added to each well. After a 1-hour incubation of the plate for 1 hour at room temperature with gentle mixing, the plate wells are washed, 3 times with 50 mM Tris, pH 7.5, 150 mM NaCl, 0.02% Tween-20. A 40 μl volume of 2× MSD Read Buffer (Meso Scale Discovery R92TC-1) is added to each well, and the plate is read immediately in an MSD Plate Reader (Meso Scale Discovery).

The target in test [2] is T1, IRAK4. Put plainly: biochemical. To be noted: for IC50: IRAK4 Biochemical Assay (1 mM ATP, 2 h) IC50 (μM), 1 mM ATP, 2 h, 100 pM IRAK4.

The pIC50 is the negative decadic logarithm of the IC50, by convention in mol/L. A higher pIC50 goes with a small IC50. The term IC50 denotes the concentration needed to halve the response being measured.

SMILES strings stand for the structures. pIC50: −log10 of the molar value.

Consider `CCOc1cc2nc(C[C@H]3CCOC3)cn2cc1C(=O)Nc1cccc(C(F)F)n1` (single isomer, unassigned) [Example 64], for which the pIC50 on IRAK4 [1] was 9.00; against IRAK4 [2] it was 8.77.
As for `COc1cccc(NC(=O)c2cn3cc(C4CC(OC)C4)nc3cc2OC)n1` (centres unmarked) [Example 8], the pIC50 at IRAK4 [1] was 8.05. For the same molecule, the midpoint of inhibition against IRAK4 [2], the IC50, lay at 0.0263 µM.
In the same order, the values of `COc1cccc(NC(=O)c2cn3cc(C4CC45CCCCO5)nc3cc2OC)n1` (centres unmarked) [Example 9] are 8.05 and 0.0242 µM.
On IRAK4 [1], `COc1cccc(NC(=O)c2cn3cc(CC4CCOCC4)nc3cc2OC)n1` [Example 10] showed a pIC50 of 8.10. The IC50 at IRAK4 [2] was found to be 0.0293 µM.
In the same order, the values of `COc1cccc(NC(=O)c2cn3cc(C4CC5(CCOC5)C4)nc3cc2OC)n1` (centres unmarked) [Example 11] are 8.70 and 0.0034 µM.
With `COc1cccc(NC(=O)c2cn3cc(C4CCOCC4)nc3cc2OC)n1` [Example 21], the pIC50 against IRAK4 [1] is 8.52; at IRAK4 [2], 8.07.
Taken in the same sequence, the figures for `COc1cccc(NC(=O)c2cn3cc(C4C5COCC54)nc3cc2OC)n1` (centres unmarked) [Example 22] were 8.30 and 7.74.
As to `COc1cccc(NC(=O)c2cn3cc(CC4CCOC4)nc3cc2OC)n1` (centres unmarked) [Example 24], the negative-log IC50 (pIC50) was 8.15 against IRAK4 [1] and 7.68 against IRAK4 [2].
Taken in the same sequence, the figures for `COc1cc2nc(C3C4COCC43)cn2cc1C(=O)Nc1cccc(C(F)(F)F)n1` (centres unmarked) [Example 32] were 8.10 and 7.89.
On to `COc1cc2nc(CC3CCOC3)cn2cc1C(=O)Nc1cccc(C(F)(F)F)n1` (centres unmarked) [Example 33], for which the values for the pIC50 on IRAK4 [1] and against IRAK4 [2] were 8.30 and 7.85, respectively.
`COc1cc2nc(C3CC(OC)C3)cn2cc1C(=O)Nc1cccc(C(F)(F)F)n1` (centres unmarked) [Example 36] had a pIC50 at IRAK4 [1] of 8.10. The same molecule came in with an IC50 at IRAK4 [2] of 0.0262 µM.
Taken in the same sequence, the figures for `COc1cc2nc(C34CC(C#N)(C3)C4)cn2cc1C(=O)Nc1cccc(C(F)(F)F)n1` [Example 37] were 8.05 and 0.0253 µM.
In turn, `COc1cc2nc(C3CC4(CCOC4)C3)cn2cc1C(=O)Nc1cccc(C(F)(F)F)n1` (centres unmarked) [Example 38] had a pIC50 against IRAK4 [1] of 8.70. Also, half-maximal inhibition against IRAK4 [2] (IC50) was put at 0.0048 µM.
Take `COc1cc2nc(C3CC34CCOCC4)cn2cc1C(=O)Nc1cccc(C(F)(F)F)n1` (centres unmarked) [Example 40]: at IRAK4 [1], the pIC50 is 8.05. The molecule also displayed an IC50 against IRAK4 [2] of 0.0305 µM.
In the same order, the values of `COc1cc2nc(C3CCC(OC)C3)cn2cc1C(=O)Nc1cccc(C(F)(F)F)n1` (centres unmarked) [Example 41] are 8.30 and 0.0157 µM.
In the same order, the values of `COc1cc2nc(C3CCOC(C)(C)C3)cn2cc1C(=O)Nc1cccc(C(F)(F)F)n1` (centres unmarked) [Example 43] are 8.70 and 0.0032 µM.
In the same order, the values of `COc1cc2nc(C3CC4CCC(C3)O4)cn2cc1C(=O)Nc1cccc(C(F)(F)F)n1` (centres unmarked) [Example 44] are 8.52 and 0.0088 µM.
`COc1cc2nc(CC3CCOCC3)cn2cc1C(=O)Nc1cccc(C(F)(F)F)n1` [Example 45]: on IRAK4 [1], the pIC50 is 7.89. Also, the IC50 against IRAK4 [2] is 0.0401 µM.
In the same order, the values of `COc1cc2nc(C3CCOCC3)cn2cc1C(=O)Nc1ccn(C(F)F)n1` [Example 48] are 7.89 and 0.04 µM.
Take `CCOc1cc2nc(C[C@@H]3CCOC3)cn2cc1C(=O)Nc1cccc(C(F)F)n1` [Example 65, N-[6-(difluoromethyl)-2-pyridyl]-7-ethoxy-2-[[(3R)-tetrahydrofuran-3-yl]methyl]imidazo[1,2-a]pyridine-6-carboxamide]: the pIC50 is 9.00 on IRAK4 [1] and 8.82 against IRAK4 [2].
Taken in the same sequence, the figures for `CCOc1cc2nc(C(C)(C)C#N)cn2cc1C(=O)Nc1cccc(C(F)F)n1` [Example 74] were 8.30 and 7.87.
Regarding `COc1cc2nc(C3CCOCC3)cn2cc1C(=O)Nc1cccc2c1CCO2` [Example 107], the pIC50 was 7.89 on IRAK4 [1] and 7.40 against IRAK4 [2].
`COc1cc2nc(C3CCOCC3)cn2cc1C(=O)Nc1cccc2c1CCCC2` [Example 118]: the pIC50 on IRAK4 [1] was 8.40; against IRAK4 [2] it was 7.76.
Taken in the same sequence, the figures for `COc1cc2nc(C3CCOCC3)cn2cc1C(=O)Nc1cccc2c1CCC2` [Example 121] were 8.52 and 8.04.
Taken in the same sequence, the figures for `COc1cc2nc(C3CCOCC3)cn2cc1C(=O)Nc1cccc(C(F)(F)CF)c1` [Example 122] were 7.82 and 7.24.
`COc1cc2nc(C3CCOCC3)cn2cc1C(=O)Nc1cccc(C(F)F)c1` [Example 125]: the pIC50 is 8.40 against IRAK4 [1] and 7.89 at IRAK4 [2].
Taken in the same sequence, the figures for `COc1cc2nc(C3CCOCC3)cn2cc1C(=O)Nc1cscc1C` [Example 135] were 7.85 and 7.19.
In the same order, the values of `COc1cc2nc(C3CCOCC3)cn2cc1C(=O)Nc1cccc(CF)c1` [Example 141] are 8.10 and 7.61.
Take `COc1cc2nc(C3CCOCC3)cn2cc1C(=O)Nc1cccc(C(F)(F)F)c1C` [Example 142]: the results for the pIC50 against IRAK4 [1] and at IRAK4 [2] were 7.85 and 7.42, respectively.
In turn, `COc1cc2nc(C3CCOCC3)cn2cc1C(=O)Nc1cccnc1C1CC1` [Example 148] showed a negative logarithm of the IC50 (pIC50) at IRAK4 [1] of 7.06.
With `COc1cc2nc(C3CCOCC3)cn2cc1C(=O)Nc1scnc1C(C)C` [Example 150], the pIC50 on IRAK4 [1] was 7.64.
Still for that read-out and setting: next, `COc1cc(F)cc(NC(=O)c2cn3cc(C4CCOCC4)nc3cc2OC)c1` [Example 151]: 7.34.
On the same count and under the same terms, for `COc1cc2nc(C3CCOCC3)cn2cc1C(=O)Nc1cc(F)cc(F)c1` [Example 152] the value was 7.64.
As to `COc1cc2nc(C3CCOCC3)cn2cc1C(=O)Nc1cccc(C)c1C` [Example 153], the pIC50 against IRAK4 [1] is 7.72.
Regarding `COc1cc2nc(C3CCOCC3)cn2cc1C(=O)Nc1ccns1` [Example 156], the pIC50 against IRAK4 [1] is 6.83.
The same measure, in the same setting: next, `COc1cccc(NC(=O)c2cn3cc(C4CCOCC4)nc3cc2OC)c1` [Example 157]: 7.68; `COc1cc2nc(C3CCOCC3)cn2cc1C(=O)Nc1ccc(F)c(C(F)F)c1` [Example 159]: 7.70.
Same read-out and setting: for `COc1cc2nc(C3CCOCC3)cn2cc1C(=O)Nc1cccc(OC)c1C` [Example 160] the value was 7.15; for `COc1cc2nc(C3CCOCC3)cn2cc1C(=O)N[C@H]1CC[C@@H](OC)CC1` [Example 161], 6.46.
On the same count and under the same terms, next, `COc1cc2nc(C3CCOCC3)cn2cc1C(=O)Nc1cccc(C2CC2)c1` [Example 163]: 6.16; `COc1cc2nc(C3CCOCC3)cn2cc1C(=O)Nc1cc(F)c(F)c(C(F)F)c1` [Example 164]: 7.43.
`COc1cc2nc(C3CCOCC3)cn2cc1C(=O)Nc1cccc(F)c1` [Example 165] had a pIC50 against IRAK4 [1] of 7.62. This pIC50 and that of the molecule before are within 0.2 log units of each other.
On the same count and under the same terms, next, `COc1cc2nc(C3CCOCC3)cn2cc1C(=O)Nc1cc(C)cc(C)c1OC` [Example 166]: 6.51.
`CCc1ccccc1NC(=O)c1cn2cc(C3CCOCC3)nc2cc1OC` [Example 167] had a pIC50 at IRAK4 [1] of 7.14.
Molecule `COc1cc2nc(C3CCOCC3)cn2cc1C(=O)Nc1nc(C)c(Cl)s1` [Example 171] gave a pIC50 against IRAK4 [1] of 6.07.
Still for that read-out and setting: next, `COc1cc2nc(C3CCOCC3)cn2cc1C(=O)Nc1cc(F)cc(Cl)c1` [Example 172]: 7.68; `COc1cc2nc(C3CCOCC3)cn2cc1C(=O)NC1CCCC(C)C1C` (centres unmarked) [Example 175]: 6.13; `COc1cc2nc(C3CCOCC3)cn2cc1C(=O)Nc1cc(C)cc(F)c1` [Example 176]: 7.52.
Regarding `COc1cc2nc(C3CCOCC3)cn2cc1C(=O)Nc1cc(C)cc(C)c1` [Example 178], the pIC50 at IRAK4 [1] was 6.52.
At IRAK4 [1], `COc1cc2nc(C3CCOCC3)cn2cc1C(=O)Nc1cccc2c1CCOC2` [Example 180] gave a negative logarithm of the IC50 (pIC50) of 7.72.
At IRAK4 [1], `COc1cc2nc(C3CCOCC3)cn2cc1C(=O)Nc1ccc(F)c(F)c1C` [Example 181] showed a pIC50 of 6.77.
